# According to patent US20060058312A1, “Stabilized aqueous preparation for injection” (priority 2004, published 2006):
# Legend:
# [1] = Content during storage of the preparation of the present invention; type: physicochemical; details: storage at 40° C./4 months (equivalent to 25° C./2 years)
# Description: In the preparation of the present invention, the pH value of the aqueous preparation is most desirably 6 to 7, the antioxidant is a combination of ascorbic acid with sodium pyrosulfite, and the concentration of the antioxidant is 0.1 to 0.3 w/v %. However, in the case where the concentration of sodium pyrosulfite is not less than 0.2 w/v %, precipitants form in the aqueous preparation. The preparation of the present invention is desirably included in an inner container, e.g., a syringe in a double package form which comprises an inner container and an outer bag, where a deoxidant (oxygen absorber) is placed between the inner container and the outer bag. The preparation of the present invention can be used as a pharmaceutical. The content of calcium salt of 5-formyl-(6S)-tetrahydrofolic acid (i.e. calcium levofolinate) is 90% or more during storage at 40° C./4 months (this condition is equivalent to 25° C./2 years)
# [2] = Stability test at 60° C., addition amount of ascorbic acid at pH 8.1 (Example 4), HPLC content; type: physicochemical; details: for remaining calcium levofolinate content compared with the initial value (100): 60° C.
# Experimental: For the aqueous preparations obtained in (1) to (3) above, tests evaluating stability at 60° C./3 weeks were performed. The calcium levofolinate content remaining in the aqueous solution was measured using high performance liquid chromatography under the following conditions (the same were employed in the following experiments) 2 ml each of the test preparations were weighed, and 10 ml of the internal standard solution described below (the same was employed in the following experiments) were added thereto. Subsequently, water was added to adjust the total volume of the solution to 50 ml, thereby to prepare a test solution. Meanwhile, 62.5 mg of calcium levofolinate were dissolved in water so as to prepare a 25 ml solution. Then, to 10 ml of the resultant solution were added 10 ml of the internal standard solution, and the total volume of the solution was adjusted to 50 ml by adding water, thereby to prepare a standard solution. For 20 μl of the standard solution and the test solution, the content of calcium levofolinate was measured by the liquid chromatography method under the following conditions.
# 1) Measurement Conditions • Detector: Ultraviolet absorptiometer (Measurement wavelength: 254 nm) • Column: A stainless tube having an internal diameter of 4.0 mm and a length of 15 cm was filled with 5 μm of octadecylsilylated silica gel for liquid chromatography. • Column temperature: A constant temperature near 45° C. • Mobile phase: The pH value of a mixed test solution containing 0.008 mol/L of disodium hydrogen phosphate solution/methanol/40% aqueous tetrabutylammonium hydroxide solution (385:110:1.3 (volume ratio)) was adjusted to 7.5 by adding phosphoric acid. • Flow rate: The flow rate was regulated so that the retention time of calcium levofolinate became about 10 minutes. • Internal standard solution: A solution prepared by adding water to 0.04 g of methyl parahydroxybenzoate so that the whole amount of solution is 100 ml.
# About 80 ml of water for injection were added to a beaker (volume: 200 ml). Then 0.56 g of sodium chloride, 0.3 g of tromethamine, and 1.375 g of calcium levofolinate (1.1 g, in terms of 5-formyl-(6S)-tetrahydrofolic acid) were added to it with bubbling of nitrogen gas, and the components were dissolved with stirring (this procedure was performed […]). Subsequently, 0 (no addition), 0.05 g, 0.1 g, 0.3 g, 0.5 g or 1.0 g of ascorbic acid was added to each solution, and was dissolved with stirring, to prepare six solutions. Thereafter, in the case where the addition amount of ascorbic acid is 0 (no addition), 0.05 g, or 0.1 g, the pH value of each solution was adjusted to 8.1 by adding 5% hydrochloric acid dropwise. In the case where the addition amount of ascorbic acid is 0.3 g, 0.5 g, or 1.0 g, the pH value of each solution was adjusted to 8.1 by adding 1% aqueous sodium hydroxide solution dropwise. Water for injection was further added to each solution to adjust the total volume of the solution to 100 ml. Subsequently, the bubbling of nitrogen gas was stopped, and each solution was filtered with a filtration filter, thereby to yield a solution for injection. Subsequently, each of five 5 ml-glass ampules the inside space of which had been substituted by nitrogen gas, was filled with 5 ml of the resultant solution for injection, and it was sealed by heating.
# For each aqueous preparation obtained as above, a test evaluating stability at 60° C. was performed by measuring the remaining calcium levofolinate content by the high performance liquid chromatography method.
smiles,measurement,setting,value
"Nc1nc(=O)c2c([nH]1)NC[C@H](CNc1ccc(C(=O)N[C@@H](CCC(=O)O)C(=O)O)cc1)N2C=O [calcium levofolinate, (6S)-N-[4-[[(2-amino-5-formyl-1,4,5,6,7,8-hexahydro-4-oxo-6-pteridinyl)methyl]amino]benzoyl]-L-glutamic acid]",content of calcium levofolinate during storage,[1],≥ 90%
same,remaining calcium levofolinate content compared with the initial value (100),"[2]; ascorbic acid 0% (No addition), 1 month",79.7
same,remaining calcium levofolinate content compared with the initial value (100),"[2]; ascorbic acid 0% (No addition), 1 week",94.1
same,remaining calcium levofolinate content compared with the initial value (100),"[2]; ascorbic acid 0% (No addition), 2 weeks",88.7
same,remaining calcium levofolinate content compared with the initial value (100),"[2]; ascorbic acid 0% (No addition), 3 weeks",86.0
same,"calcium levofolinate content, Initial value (100)",[2]; ascorbic acid 0% (No addition),100
same,remaining calcium levofolinate content compared with the initial value (100),"[2]; ascorbic acid 0.05%, 1 month",82.6
same,remaining calcium levofolinate content compared with the initial value (100),"[2]; ascorbic acid 0.05%, 1 week",96.4
same,remaining calcium levofolinate content compared with the initial value (100),"[2]; ascorbic acid 0.05%, 2 weeks",92.4
same,remaining calcium levofolinate content compared with the initial value (100),"[2]; ascorbic acid 0.05%, 3 weeks",87.3
same,"calcium levofolinate content, Initial value (100)",[2]; ascorbic acid 0.05%,100
same,remaining calcium levofolinate content compared with the initial value (100),"[2]; ascorbic acid 0.1%, 1 month",82.2
same,remaining calcium levofolinate content compared with the initial value (100),"[2]; ascorbic acid 0.1%, 1 week",97.4
same,remaining calcium levofolinate content compared with the initial value (100),"[2]; ascorbic acid 0.1%, 2 weeks",93.1
same,remaining calcium levofolinate content compared with the initial value (100),"[2]; ascorbic acid 0.1%, 3 weeks",87.7
same,"calcium levofolinate content, Initial value (100)",[2]; ascorbic acid 0.1%,100
same,remaining calcium levofolinate content compared with the initial value (100),"[2]; ascorbic acid 0.3%, 1 month",81.6
same,remaining calcium levofolinate content compared with the initial value (100),"[2]; ascorbic acid 0.3%, 1 week",96.3
same,remaining calcium levofolinate content compared with the initial value (100),"[2]; ascorbic acid 0.3%, 2 weeks",91.3
same,remaining calcium levofolinate content compared with the initial value (100),"[2]; ascorbic acid 0.3%, 3 weeks",86.9
same,"calcium levofolinate content, Initial value (100)",[2]; ascorbic acid 0.3%,100
same,remaining calcium levofolinate content compared with the initial value (100),"[2]; ascorbic acid 0.5%, 1 month",80.9
same,remaining calcium levofolinate content compared with the initial value (100),"[2]; ascorbic acid 0.5%, 1 week",96.5
same,remaining calcium levofolinate content compared with the initial value (100),"[2]; ascorbic acid 0.5%, 2 weeks",90.9
same,remaining calcium levofolinate content compared with the initial value (100),"[2]; ascorbic acid 0.5%, 3 weeks",86.0
same,"calcium levofolinate content, Initial value (100)",[2]; ascorbic acid 0.5%,100
same,remaining calcium levofolinate content compared with the initial value (100),"[2]; ascorbic acid 1.0%, 1 month",80.3
same,remaining calcium levofolinate content compared with the initial value (100),"[2]; ascorbic acid 1.0%, 1 week",95.4
same,remaining calcium levofolinate content compared with the initial value (100),"[2]; ascorbic acid 1.0%, 2 weeks",89.8
same,remaining calcium levofolinate content compared with the initial value (100),"[2]; ascorbic acid 1.0%, 3 weeks",84.1
same,"calcium levofolinate content, Initial value (100)",[2]; ascorbic acid 1.0%,100
